Measured values reported in US20230234928A1, “Novel Compounds for Treating Fibrosis and Inflammatory Conditions” (MAKScientific, LLC, priority 2020, published 2023).
Where “and” joins values, the source holds several entries; their conditions need not be identical. Equal values may be shown once.

Columns and labels:
CB2 cannabinoid receptor = CB2 cannabinoid receptor (UniProt P34972); test: CB2 competition-equilibrium binding using [3H]CP-55,940; details: competition binding with [3H]CP-55,940; read-out: CB2 cannabinoid receptor binding affinity (Ki)
Protocol: (§1) HEK293 cells expressing hCB1, hCB2 or mCB2 receptor are used for membrane preparations according to the method described in J Neurochem 1999, 72, (5), 2032-8, herein incorporated by reference in its entirety. The resulting pellet is resuspended in 10 mM Tris-chloride, pH 7.4 with 5 mM MgCl2 and 2 mM EDTA (TME), and stored at −80° C. for no longer than two months. Protein content is assayed by using the Bio-Rad DC protein assay according to the manufacturer's protocol.
(§2) The compound was tested for its ability to bind to CB1 and CB2 receptors using rat brain or HEK293 cell membranes expressing hCB2 and mCB2 membrane preparations, respectively, as described in J Med Chem 1999, 42, (4), 769-776, J Med Chem 1994, 37, (23), 3867-70 and Life Sci 1995, 56, (23-24), 1957-62 (each herein incorporated by reference in its entirety) via competition-equilibrium binding using [^3H]CP-55,940. The results were analyzed using nonlinear regression to determine the actual IC50 of the ligand (Prizm by GraphPad Software, Inc.) and the Ki values are calculated from the IC50 as described in Biochemical Pharmacology 1973, 22, (23), 3099-3108; herein incorporated by reference in its entirety.

CB1 = target: T1, CB1 (Mus musculus, UniProt P47746); test: in vivo CB1 antagonism (hypothermia) in male CD1 mice; details: 10 mg/kg i.p. test compound, 30 mg/kg Δ9-THC, male CD-1 mice, rectal temperature
T1 construct: tissue Charles River; host or cells: whole animal, male CD-1 mice
T1 sequence (P47746 whole entry): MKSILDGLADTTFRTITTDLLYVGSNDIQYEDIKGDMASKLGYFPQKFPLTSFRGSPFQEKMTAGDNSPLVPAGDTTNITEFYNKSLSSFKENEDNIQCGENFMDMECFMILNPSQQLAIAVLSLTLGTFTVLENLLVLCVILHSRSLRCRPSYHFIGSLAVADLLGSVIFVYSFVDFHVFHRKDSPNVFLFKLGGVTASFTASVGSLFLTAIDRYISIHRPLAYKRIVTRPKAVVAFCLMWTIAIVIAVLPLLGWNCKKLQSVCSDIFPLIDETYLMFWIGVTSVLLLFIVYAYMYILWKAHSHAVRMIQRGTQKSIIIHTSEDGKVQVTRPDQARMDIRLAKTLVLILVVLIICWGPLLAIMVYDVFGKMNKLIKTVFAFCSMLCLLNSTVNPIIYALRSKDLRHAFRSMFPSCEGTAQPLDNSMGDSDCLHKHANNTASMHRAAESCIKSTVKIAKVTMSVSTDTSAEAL
Protocol: Male CD-1 mice (Charles River, Wilmington, Mass., USA) aged 4-6 weeks weighing between 25-35 gm were chosen for in vivo CB1 antagonism testing. The mice were housed 4 per cage with free access to food and water. The temperature of the vivarium was 25° C. with a non-reversed 12 hrs light/dark cycle (lights on 7 am). Mice were habituated to the vivarium for at least one week before any experiments were performed. All experimental procedures were pre-approved by The Animal Care and Use Committee of Northeastern University, Boston, Mass., USA. The “Principles of Animal Laboratory Care” (National Institute of Health 1996) was followed. The test compound (10 mg/kg) was dissolved in 4% dimethyl sulfoxide, followed by 8% Tween-80 and 8% propylene glycol. Saline was added slowly to this solution with sonication prior to administration. Δ^9-THC was initially dissolved in 2% dimethyl sulfoxide, followed by 4% Tween-80 and 4% propylene glycol. Saline was added slowly to this drug solution with sonication prior to administration. All administrations were i.p. at a volume of 10 ml/kg. […] Core temperature was measured using a rectal probe of a digital laboratory thermometer, RET-3-ISO, type T thermocouple (Physitemp Instruments Inc., Clifton, N.J.). The probe was inserted 2 cm into the rectum for ≈20 to 30 seconds at which time the rectal temperature readings had stabilized.

C57BL/6 mice = test: diabetic (STZ) high-fat diet mouse NASH model; format: in vivo; details: 10 mg/kg PO daily; for fibrosis scores: vs control group
Protocol: Timed pregnant female C57BL/6 mice (Jackson Laboratories, USA) were obtained and housed with a cardboard hut for birthing and nursing of pups (enrichment), in an AAALAC-accredited vivarium, prefilled with corn cob bedding on a 12-hour light-dark at 68-74° F. and 30-70% humidity. Pregnant female mice were fed water and a standard rodent diet (Teklad irradiated 2918) ad libitum consisting of 18% protein, 5% fat, and 5% fiber. Three days post birth, pups from all litters received streptozotocin (STZ), i.p. at 200 mg/kg, to induce a mild to moderate hyperglycemia and insulin insufficiency. Random blood glucose was measured at weaning when pups were 25 days old. At weaning, mice were fed water and a standard rodent diet (Teklad irradiated 2918) ad libitum consisting of 18% protein, 5% fat, and 5% fiber. At 4 weeks of age, male mice were randomized into 7 study groups based on a random blood glucose (RBG) between 200-750 mg/dl and were switched from the standard rodent diet to the modified high fat diet (HFD), Research Diets D09100310 for the remainder of the study. Following 3 weeks of HFD feeding, test article and vehicle control dose administration was initiated and continued for up to 9 weeks. Body weights were measured at least twice a week from dose initiation through study end/termination. HFD was changed weekly with the old food being discarded. Animals had random blood glucose measured every 3 weeks and at termination. Clinical observations were performed daily from receipt/birth and continued through study end. Compound 1 and rimonabant were stored at −20° C. prior to drug preparation. Following three weeks of modified diet feeding, dose initiation of the compounds began and continued for up to 9 weeks. Test compounds were dissolved in 2% dimethyl sulfoxide, followed by 8% Tween-80 and 8% propylene glycol. Saline was added slowly to this solution with sonication prior to administration. Animals were dosed at 10 mg/kg via oral gavage (PO), daily, for up to 9 weeks.
Livers were scored for both NAS and NASH parameters. […] Fibrosis was observed across all study groups. […] Lobular inflammation was present across all NASH study groups thus indicating inflammatory cell infiltration. Following 9 weeks of treatment with Compound 1, lobular inflammation was reduced.

CB1 cannabinoid receptor = target: T2, CB1 cannabinoid receptor (Homo sapiens, UniProt P21554); test: CB1 competition-equilibrium binding using [3H]CP-55,940; details: competition binding with [3H]CP-55,940; FIG. 1: hCB1-HEK292 cells; read-out: CB1 cannabinoid receptor binding affinity (Ki)
T2 construct: expressed in transfected cells; host or cells: HEK293
T2 sequence (P21554 whole entry): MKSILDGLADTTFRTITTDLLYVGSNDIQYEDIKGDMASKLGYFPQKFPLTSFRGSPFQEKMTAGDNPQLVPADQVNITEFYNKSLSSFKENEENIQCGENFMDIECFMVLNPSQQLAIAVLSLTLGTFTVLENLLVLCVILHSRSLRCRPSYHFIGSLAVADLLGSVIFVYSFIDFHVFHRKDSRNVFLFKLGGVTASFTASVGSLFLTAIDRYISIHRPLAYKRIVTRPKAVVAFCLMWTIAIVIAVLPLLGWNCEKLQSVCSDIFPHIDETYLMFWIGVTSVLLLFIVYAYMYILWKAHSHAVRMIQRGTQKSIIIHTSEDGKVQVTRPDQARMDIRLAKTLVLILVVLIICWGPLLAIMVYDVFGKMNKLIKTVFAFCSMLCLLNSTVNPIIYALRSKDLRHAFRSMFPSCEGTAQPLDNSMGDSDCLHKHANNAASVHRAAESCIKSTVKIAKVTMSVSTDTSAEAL
Protocol: as §1
Frozen rat brains (CB1 source) are obtained from Pel-Freeze Biologicals (Rogers, Ak.) and stored at −80° C. until use. […]
as §2

Row | SMILES | Ki (CB2 cannabinoid receptor) | antagonism of hypothermic effects induced by the CB1 agonist Δ9-THC (CB1) | lobular inflammation (C57BL/6 mice; 9 weeks of treatment, liver) | steatosis (C57BL/6 mice; 9 weeks of treatment, liver) | fibrosis scores (C57BL/6 mice; 9 weeks of treatment, liver) | inflammation and fibrosis (overall) (C57BL/6 mice; up to 9 weeks) | animal survival (C57BL/6 mice; up to 9 weeks, compared to rimonabant) | Ki (CB1 cannabinoid receptor)
1 | Cc1c(C(=O)NN2CCS(=O)(=O)CC2)nc(-c2ccc(Cl)cc2Cl)n1-c1ccc(C#CCCC#N)cc1 [Compound 1, 1-(4-(4-cyanobut-1-yn-1-yl)phenyl)-2-(2,4-dichlorophenyl)-N-(1,1-dioxidothiomorpholino)-5-methyl-1H-imidazole-4-carboxamide] | > 1000 nM | inability of 10 mg/kg of compound 1 to antagonize the hypothermic effects | reduced | decreased | statistically significant when compared to the control group | markedly attenuated or delayed the inflammation and fibrosis | increased animal survival as compared to rimonabant | 1 nM and ~1 nM
2 | Cc1c(C(=O)NN2CCCCC2)nn(-c2ccc(Cl)cc2Cl)c1-c1ccc(Cl)cc1 [rimonabant, 5-(4-chlorophenyl)-1-(2,4-dichlorophenyl)-4-methyl-N-(piperidin-1-yl)-1H-pyrazole-3-carboxamide, reference compound] |  |  |  | decreased | statistically significant when compared to the control group |  |  | 
